Measured values taken from the NIST ThermoML archive (doi:10.1016/j.jct.2015.01.003).
Numbers after ± are expanded uncertainties.

Test: excess molar enthalpy (molar enthalpy of mixing); xn = mol fraction of the nth substance listed
Settings: 100 kPa, Liquid, Flow calorimetry

Question: For `Cc1ccccc1` [toluene] + CCCO, which excess molar enthalpy (298.15 K, x1 = 0.0503) is on record?
Answer: 0.0239 ± 0.00263 kcal/mol

Question: And the excess molar enthalpy (298.15 K, x1 = 0.0998)?
Answer: 0.0488 ± 0.00263 kcal/mol

Question: And the excess molar enthalpy (298.15 K, x1 = 0.1497)?
Answer: 0.0731 ± 0.00263 kcal/mol

Question: And the excess molar enthalpy (298.15 K, x1 = 0.2)?
Answer: 0.098 ± 0.00263 kcal/mol

Question: And the excess molar enthalpy (298.15 K, x1 = 0.2506)?
Answer: 0.122 ± 0.00263 kcal/mol

Question: And the excess molar enthalpy (298.15 K, x1 = 0.2997)?
Answer: 0.144 ± 0.00287 kcal/mol

Question: What about the excess molar enthalpy (298.15 K, x1 = 0.3506) of the same compound?
Answer: 0.165 ± 0.00287 kcal/mol

Question: And the excess molar enthalpy (298.15 K, x1 = 0.3997)?
Answer: 0.183 ± 0.00287 kcal/mol

Question: And the excess molar enthalpy (298.15 K, x1 = 0.4505)?
Answer: 0.201 ± 0.00287 kcal/mol

Question: What about the excess molar enthalpy (298.15 K, x1 = 0.5012) of the same compound?
Answer: 0.214 ± 0.00287 kcal/mol

Question: What about the excess molar enthalpy (298.15 K, x1 = 0.5495) of the same compound?
Answer: 0.225 ± 0.00311 kcal/mol

Question: What about the excess molar enthalpy (298.15 K, x1 = 0.5993) of the same compound?
Answer: 0.233 ± 0.00311 kcal/mol

Question: What about the excess molar enthalpy (298.15 K, x1 = 0.651) of the same compound?
Answer: 0.238 ± 0.00311 kcal/mol

Question: And the excess molar enthalpy (298.15 K, x1 = 0.6997)?
Answer: 0.238 ± 0.00311 kcal/mol

Question: What about the excess molar enthalpy (298.15 K, x1 = 0.7501) of the same compound?
Answer: 0.234 ± 0.00311 kcal/mol

Question: And the excess molar enthalpy (298.15 K, x1 = 0.7996)?
Answer: 0.223 ± 0.00311 kcal/mol

Question: And the excess molar enthalpy (298.15 K, x1 = 0.8506)?
Answer: 0.205 ± 0.00311 kcal/mol

Question: And the excess molar enthalpy (298.15 K, x1 = 0.9008)?
Answer: 0.176 ± 0.00311 kcal/mol

Question: And the excess molar enthalpy (298.15 K, x1 = 0.9496)?
Answer: 0.126 ± 0.00311 kcal/mol

Question: And the excess molar enthalpy (313.15 K, x1 = 0.0503)?
Answer: 0.0339 ± 0.00263 kcal/mol

Question: What about the excess molar enthalpy (313.15 K, x1 = 0.0998) of the same compound?
Answer: 0.0681 ± 0.00263 kcal/mol

Question: And the excess molar enthalpy (313.15 K, x1 = 0.1497)?
Answer: 0.0994 ± 0.00287 kcal/mol

Question: And the excess molar enthalpy (313.15 K, x1 = 0.2001)?
Answer: 0.133 ± 0.00287 kcal/mol

Question: And the excess molar enthalpy (313.15 K, x1 = 0.2507)?
Answer: 0.163 ± 0.00287 kcal/mol

Question: And the excess molar enthalpy (313.15 K, x1 = 0.2997)?
Answer: 0.191 ± 0.00287 kcal/mol

Question: What about the excess molar enthalpy (313.15 K, x1 = 0.3507) of the same compound?
Answer: 0.217 ± 0.00311 kcal/mol

Question: And the excess molar enthalpy (313.15 K, x1 = 0.3998)?
Answer: 0.238 ± 0.00311 kcal/mol

Question: What about the excess molar enthalpy (313.15 K, x1 = 0.4506) of the same compound?
Answer: 0.258 ± 0.00311 kcal/mol

Question: What about the excess molar enthalpy (313.15 K, x1 = 0.5013) of the same compound?
Answer: 0.273 ± 0.00335 kcal/mol

Question: What about the excess molar enthalpy (313.15 K, x1 = 0.5495) of the same compound?
Answer: 0.285 ± 0.00335 kcal/mol

Question: And the excess molar enthalpy (313.15 K, x1 = 0.5995)?
Answer: 0.293 ± 0.00335 kcal/mol

Question: And the excess molar enthalpy (313.15 K, x1 = 0.651)?
Answer: 0.297 ± 0.00335 kcal/mol

Question: And the excess molar enthalpy (313.15 K, x1 = 0.6998)?
Answer: 0.296 ± 0.00335 kcal/mol

Question: And the excess molar enthalpy (313.15 K, x1 = 0.7501)?
Answer: 0.288 ± 0.00335 kcal/mol

Question: What about the excess molar enthalpy (313.15 K, x1 = 0.7996) of the same compound?
Answer: 0.273 ± 0.00335 kcal/mol

Question: And the excess molar enthalpy (313.15 K, x1 = 0.8507)?
Answer: 0.248 ± 0.00335 kcal/mol

Question: What about the excess molar enthalpy (313.15 K, x1 = 0.9007) of the same compound?
Answer: 0.21 ± 0.00335 kcal/mol

Question: What about the excess molar enthalpy (313.15 K, x1 = 0.9496) of the same compound?
Answer: 0.143 ± 0.00335 kcal/mol

Question: Which excess molar enthalpy (298.15 K, x1 = 0.0492) does the source give for `c1ccccc1` [benzene] + CCCO here?
Answer: 0.0253 ± 0.00263 kcal/mol

Question: And the excess molar enthalpy (298.15 K, x1 = 0.0993)?
Answer: 0.0523 ± 0.00263 kcal/mol

Question: And the excess molar enthalpy (298.15 K, x1 = 0.1503)?
Answer: 0.0798 ± 0.00263 kcal/mol

Question: And the excess molar enthalpy (298.15 K, x1 = 0.2006)?
Answer: 0.106 ± 0.00263 kcal/mol

Question: What about the excess molar enthalpy (298.15 K, x1 = 0.2499) of the same compound?
Answer: 0.132 ± 0.00287 kcal/mol

Question: And the excess molar enthalpy (298.15 K, x1 = 0.3001)?
Answer: 0.156 ± 0.00287 kcal/mol

Question: And the excess molar enthalpy (298.15 K, x1 = 0.3493)?
Answer: 0.178 ± 0.00287 kcal/mol

Question: What about the excess molar enthalpy (298.15 K, x1 = 0.3994) of the same compound?
Answer: 0.198 ± 0.00287 kcal/mol

Question: And the excess molar enthalpy (298.15 K, x1 = 0.4505)?
Answer: 0.217 ± 0.00311 kcal/mol

Question: And the excess molar enthalpy (298.15 K, x1 = 0.5004)?
Answer: 0.231 ± 0.00311 kcal/mol

Question: And the excess molar enthalpy (298.15 K, x1 = 0.5491)?
Answer: 0.243 ± 0.00311 kcal/mol

Question: What about the excess molar enthalpy (298.15 K, x1 = 0.5987) of the same compound?
Answer: 0.251 ± 0.00311 kcal/mol

Question: What about the excess molar enthalpy (298.15 K, x1 = 0.6492) of the same compound?
Answer: 0.256 ± 0.00311 kcal/mol

Question: And the excess molar enthalpy (298.15 K, x1 = 0.7006)?
Answer: 0.255 ± 0.00311 kcal/mol

Question: What about the excess molar enthalpy (298.15 K, x1 = 0.7507) of the same compound?
Answer: 0.249 ± 0.00311 kcal/mol

Question: And the excess molar enthalpy (298.15 K, x1 = 0.7994)?
Answer: 0.237 ± 0.00311 kcal/mol

Question: And the excess molar enthalpy (298.15 K, x1 = 0.8489)?
Answer: 0.217 ± 0.00311 kcal/mol

Question: And the excess molar enthalpy (298.15 K, x1 = 0.8992)?
Answer: 0.184 ± 0.00311 kcal/mol

Question: What about the excess molar enthalpy (298.15 K, x1 = 0.9504) of the same compound?
Answer: 0.128 ± 0.00311 kcal/mol

Question: And the excess molar enthalpy (313.15 K, x1 = 0.0493)?
Answer: 0.0325 ± 0.00263 kcal/mol

Question: And the excess molar enthalpy (313.15 K, x1 = 0.0995)?
Answer: 0.0662 ± 0.00263 kcal/mol

Question: What about the excess molar enthalpy (313.15 K, x1 = 0.1506) of the same compound?
Answer: 0.1 ± 0.00287 kcal/mol

Question: And the excess molar enthalpy (313.15 K, x1 = 0.2009)?
Answer: 0.133 ± 0.00287 kcal/mol

Question: And the excess molar enthalpy (313.15 K, x1 = 0.2503)?
Answer: 0.162 ± 0.00287 kcal/mol

Question: And the excess molar enthalpy (313.15 K, x1 = 0.3005)?
Answer: 0.191 ± 0.00287 kcal/mol

Question: And the excess molar enthalpy (313.15 K, x1 = 0.3498)?
Answer: 0.217 ± 0.00311 kcal/mol

Question: What about the excess molar enthalpy (313.15 K, x1 = 0.3999) of the same compound?
Answer: 0.24 ± 0.00311 kcal/mol

Question: And the excess molar enthalpy (313.15 K, x1 = 0.451)?
Answer: 0.262 ± 0.00311 kcal/mol

Question: And the excess molar enthalpy (313.15 K, x1 = 0.5009)?
Answer: 0.278 ± 0.00335 kcal/mol

Question: What about the excess molar enthalpy (313.15 K, x1 = 0.5497) of the same compound?
Answer: 0.291 ± 0.00335 kcal/mol

Question: What about the excess molar enthalpy (313.15 K, x1 = 0.5993) of the same compound?
Answer: 0.299 ± 0.00335 kcal/mol

Question: And the excess molar enthalpy (313.15 K, x1 = 0.6497)?
Answer: 0.303 ± 0.00335 kcal/mol

Question: What about the excess molar enthalpy (313.15 K, x1 = 0.701) of the same compound?
Answer: 0.3 ± 0.00335 kcal/mol

Question: What about the excess molar enthalpy (313.15 K, x1 = 0.7511) of the same compound?
Answer: 0.291 ± 0.00335 kcal/mol

Question: What about the excess molar enthalpy (313.15 K, x1 = 0.7997) of the same compound?
Answer: 0.276 ± 0.00335 kcal/mol

Question: And the excess molar enthalpy (313.15 K, x1 = 0.8491)?
Answer: 0.25 ± 0.00335 kcal/mol

Question: What about the excess molar enthalpy (313.15 K, x1 = 0.8994) of the same compound?
Answer: 0.209 ± 0.00335 kcal/mol

Question: What about the excess molar enthalpy (313.15 K, x1 = 0.9505) of the same compound?
Answer: 0.14 ± 0.00335 kcal/mol
